Test results as given in ChEMBL document CHEMBL4043066, “Drug Discovery Targeting Bromodomain-Containing Protein 4” (J Med Chem, 2017).

Assays:
[1] = target: T1, Bromodomain-containing protein 4 (Homo sapiens, UniProt O60885); assay: Inhibition of His-epitope tagged BRD4 bromodomain 1 (44 to 168 residues) (unknown origin) using biotinylated histone H4 as substrate after 1 hr by AlphaScreen assay
[2] = target: T1, Bromodomain-containing protein 4; assay: Inhibition of His-epitope tagged BRD4 bromodomain 2 (333 to 460 residues) (unknown origin) using biotinylated histone H4 as substrate after 1 hr by AlphaScreen assay
[3] = target: T1, Bromodomain-containing protein 4; assay: Inhibition of biotin-labeled acetylated peptide binding to BRD4 bromodomain 1 (unknown origin) expressed in Escherichia coli BL21 after 1 hr by BROMOscan assay
[4] = system: MV4-11; assay: Growth inhibition of human MV4-11 cells after 4 days by CellTiter-Glo assay; type: functional; conditions: MV4-11, 96 h
[5] = target: T1, Bromodomain-containing protein 4; assay: Inhibition of GST-tagged BRD4 (unknown origin) using biotinylated acetyl-histone H4 peptide as substrate after 30 mins by AlphaScreen assay
[6] = target: T1, Bromodomain-containing protein 4; assay: Inhibition of His-tagged BRD4 bromodomain 1 (K57 to E168 residues) (unknown origin) after 1 hr by TR-FRET assay
[7] = target: T1, Bromodomain-containing protein 4; assay: Inhibition of His-tagged BRD4 bromodomain 2 (E352 to E168 residues) (unknown origin) after 1 hr by TR-FRET assay
[8] = system: MX1; assay: Antiproliferative activity against human MX1 cells incubated for >= 72 hrs by CellTiter-Glo assay; type: functional, cell-based; conditions: MX1, 72 h
[9] = Metabolic stability in CD1 mouse liver microsomes assessed as compound remaining at 1 uM after 30 mins in presence of NADPH by LC/MS analysis; type: ADME, microsome; conditions: read-out: Stability
[10] = Metabolic stability in human liver microsomes assessed as compound remaining at 1 uM after 30 mins in presence of NADPH by LC/MS analysis; type: ADME, microsome; conditions: read-out: Stability
[11] = system: MV4-11; assay: Antiproliferative activity against human MV4-11 cells after 72 hrs by alamarBlue assay; type: functional, cell-based; conditions: MV4-11, 72 h
[12] = target: T1, Bromodomain-containing protein 4; assay: Inhibition of BRD4 bromodomain 1 (unknown origin) using biotinylated substrate after 1 hr by AlphaLisa assay
[13] = target: T1, Bromodomain-containing protein 4; assay: Inhibition of recombinant His-tagged BRD4 bromodomain 1 (K57 to E168 residues) (unknown origin) after 1 hr by TR-FRET assay
[14] = target: T1, Bromodomain-containing protein 4; assay: Inhibition of recombinant His-tagged BRD4 bromodomain 2 (E352 to E168 residues) (unknown origin) after 1 hr by TR-FRET assay
[15] = system: MX1; assay: Antiproliferative activity against human MX1 cells after 72 hrs by CellTiter-Glo assay; type: functional, cell-based; conditions: MX1, 72 h
[16] = target: T1, Bromodomain-containing protein 4; assay: Inhibition of GST-tagged BRD4 bromodomain 1 (44 to 168 residues) (unknown origin) using biotinylated acetyl-histone H4 peptide as substrate after 30 mins in dark by AlphaScreen assay
[17] = system: MV4-11; assay: Antiproliferative activity against human MV4-11 cells; type: functional, cell-based
[18] = target: T1, Bromodomain-containing protein 4; assay: Inhibition of recombinant human His-tagged BRD4 bromodomain 1 (44 to 168 residues) expressed in Escherichia coli BL21(DE3) after 30 mins by AlphaScreen assay
[19] = system: MV4-11; assay: Antitumor activity against human MV4-11 cells harboring MLL-AF4 xenografted in mouse assessed as tumor growth inhibition at 1 mg/kg, po qd up to 28 days relative to control; type: functional; conditions: MV4-11, po, 672 h, read-out: TGI
[20] = target: T1, Bromodomain-containing protein 4
Description: Displacement of Halo-tagged histone H3.3 from NanoLuc-tagged full length BRD4 (unknown origin) expressed in HCT116 cells after 18 hrs by NanoBRET assay

[21] = target: T1, Bromodomain-containing protein 4; remark: listed apart in the source
Description: Displacement of Halo-tagged histone H3.3 from N-terminal NanoLuc-tagged BRD4 bromodomain 1 (44 to 168 residues) (unknown origin) expressed in HCT116 cells after 18 hrs by NanoBRET assay

[22] = target: T1, Bromodomain-containing protein 4; assay: Inhibition of recombinant His-tagged BRD4 (unknown origin) using biotinylated acetyl-histone H4 as substrate by AlphaLisa assay
[23] = organism: Mus musculus; assay: Antiinflammatory activity in CD1 mouse assessed as inhibition of LPS-induced IL-6 production pretreated for 1 hr followed by LPS stimulation after 2 hrs by immunoassay relative to control; type: functional
[24] = system: MV4-11; assay: Antiproliferative activity against human MV4-11 cells after 4 days by CellTiter-Glo assay; type: functional, cell-based; conditions: MV4-11, 96 h
[25] = system: MT4; assay: Antiproliferative activity against human MT4 cells after 5 days by CellTiter-Glo assay; type: functional; conditions: MT4, 120 h

## CC(=O)N1c2ccc(-c3cnn([C@H]4CCNC[C@H]4F)c3)c(OCC3CCC3)c2CC[C@H]1C
[1]
  IC50: < 100 nM
[2]
  IC50: < 50 nM

## Cc1sc2c(c1C)C(c1ccc(Cl)cc1)=N[C@@H](CC(=O)OCCCCCCO)c1nnc(C)n1-2
[3]
  Kd: 0.43 nM

## Cc1cc(N2C(=O)c3c(C4CC4)cn(C4COC4)c3C2c2ccc(Cl)cc2)cn2c(C)nnc12 (configuration not stated)
[4]
  GI50: 2.9 nM

## Cc1noc(C)c1-c1ccc2c(c1)C(c1ccccc1)N(C)C(=O)N2 (configuration not stated)
[5]
  IC50: 27 nM

## Cc1noc(C)c1-c1ccc2c(c1)[C@H](c1ccccc1)N(C)C2=O
[5]
  IC50: 14 nM

## Cn1cc(-c2cc(S(C)(=O)=O)ccc2N[C@H]2CC[C@H](NCc3ccc4ccccc4c3)CC2)c2cc[nH]c2c1=O
[6]
  Ki: 1.1 nM
[7]
  Ki: 2.2 nM
[8]
  EC50: 10 nM

## COc1cc2c(cc1-c1c(C)noc1C)ncc1nc(C3CCOCC3)n([C@H](C)COC(F)F)c12
[9]
  remaining at 0.5 h, 1 µM: 56%
[10]
  remaining at 0.5 h, 1 µM: 43%

## CCOC(=O)CC1N=C(c2ccc(Cl)cc2)c2cc(OC)ccc2-c2cn(C)c(=O)cc21 (configuration not stated)
[11]
  EC50: 2 nM
[12]
  IC50: 3 nM

## CC(=O)N1c2ccc(-c3cnn(C4CC4)c3)cc2C(OC[C@H]2CC2(F)F)C[C@H]1C (some centres not stated)
[1]
  IC50: < 100 nM
[2]
  IC50: < 50 nM

## CCOc1cc(=O)n(C)cc1-c1cc(NC(=O)CCc2ccccc2)ccc1Oc1ccc(F)cc1F
[13]
  IC50: 69 nM
[14]
  IC50: 11 nM
[15]
  EC50: 398 nM

## COc1ccc(S(=O)(=O)Nc2cccc(Oc3ccc(S(C)(=O)=O)cc3-c3cn(C)c(=O)c4[nH]ccc34)c2)cc1
[8]
  EC50: 97 nM

## COC[C@@H](C)n1c(-c2cn3c(C)nnc3c(NC(C)C)n2)nc2cc3c(cc21)N(C(C)C)S(=O)(=O)C3(C)C
[16]
  IC50: 17 nM

## Cc1sc2c(c1C)C(c1ccc(Cl)cc1)=N[C@@H](CC(=O)OC(C)(C)C)c1nnc(C)n1-2
[17]
  IC50: 72 nM

## CC1=C(C)C2C(c3ccc(Cl)cc3)=N[C@@H](CC(=O)NCCOCCOCCOCCOCCOCCOCCOCCNC(=O)C[C@@H]3N=C(c4ccc(Cl)cc4)c4c(sc(C)c4C)-n4c(C)nnc43)c3nnc(C)n3C2S1 (some centres not stated)
[17]
  IC50: 0.17 nM
[18]
  IC50: 3.1 nM

## COc1nnc2ccc(N3CCC(c4ccc(OCCN5CCN(C)C(=O)[C@H]5C)cc4)CC3)nn12 [AZD-5153]
[19]
  inhibition in vivo at 1 mg/kg: 72%
[20]
  IC50: 5 nM
[21]
  IC50: 1600 nM

## CCS(=O)(=O)c1ccc2c(c1)-c1cn(C)c(=O)cc1OCCCCc1cc(F)cc(F)c1O2
[15]
  EC50: 8.7 nM
[22]
  IC50: 1.3 nM
[23]
  inhibition (INH): 81%

## CNC(=O)N1N=C(c2ccc(N3CC4(CCS4(=O)=O)C3)cc2)c2cc(OC(F)(F)F)ccc2C[C@@H]1C
[11]
  IC50: 30 nM

## CCn1nc(C)c2c1C(=O)N(c1cc(C)c(=O)n(C)c1)C2c1ccc(Cl)cc1F (configuration not stated)
[24]
  IC50: 7.7 nM

## Cc1[nH]c(-c2ccccc2NC2CCCCC2F)cc1C(N)=O (configuration not stated)
[8]
  EC50: 433 nM

## Cc1sc2c(c1C)C(c1ccc(Cl)cc1)=N[C@H](CC(=O)OC1CCC(O)CC1)c1nnc(C)n1-2 (some centres not stated)
[3]
  Kd: 1.3 nM

## Cc1noc(C)c1-c1cc(C(O)(c2cnccn2)c2c(F)cccc2F)c2[nH]c(=O)[nH]c2c1 (configuration not stated)
[25]
  CC50: 9.7 nM

## Cc1noc(C)c1-c1ccc2c(c1)C(c1ccccc1)N1CCCOC21 (configuration not stated)
[5]
  IC50: 36 nM

## CNC(=O)N1N=C(c2ccc(N3C[C@H]4CC[C@@H](C3)O4)cc2)c2cc(OC)c(OC)cc2C[C@@H]1C
[11]
  IC50: 30 nM

## Cc1nnc2c(NC(C)C)nc(-c3nc4cnc(N5CCOC[C@H]5C)cc4n3C(C)CC3CC3)cn12 (some centres not stated)
[16]
  IC50: 9 nM
